What all share (assay type): cell-based, Mycobacterium tuberculosis
The subject of assay [1] is WT H37Rv.
Assay [2] deals with H37Rv Pks13-TE R1563H mutant.
Assay [3] relates to H37Rv Pks13-TE V1537A mutant.
The test system of assay [4] is H37Rv Pks13-TE N1640K mutant.
In assay [5] the test system is H37Rv Pks13-TE Y1674C mutant.
Assay [6] has as its system H37Rv Pks13-TE A1564D mutant.
The subject of assay [7] is H37Rv Pks13-TE A1561 V mutant.
Assay [8] deals with H37Rv Pks13-TE V1687F mutant.
The subject of assay [9] is H37Rv Pks13-TE Y1686C mutant.

Take `COc1ccc(OC)c(-c2ccc(-c3cn(CCc4ccc(C(=O)N(C)C)cc4)nn3)cn2)c1` [X20404]: the “frequency of resistance (FOR)” value in assay [1] was 4.7 × 10^–7. For the same compound, the “Fold Change in MIC (Mutant MIC/WT H37Rv MIC)” value (shortened to “Fold Change in MIC”) in assay [2] was greater than 63 fold; in [3] it was greater than 63 fold; in assay [4], 37 fold; in assay [5] it was greater than 63 fold; in assay [6] it was greater than 63 fold; in [7], 40 fold. In addition, the “Fold Change in MIC” value in [8] is greater than 63 fold; in [9] it was 19 fold.

For the compound `CO[C@H]1/C=C/O[C@@]2(C)Oc3c(C)c(O)c4c(O)c(c(/C=N/N5CCN(C)CC5)c(O)c4c3C2=O)NC(=O)/C(C)=C\C=C\[C@H](C)[C@H](O)[C@@H](C)[C@@H](O)[C@@H](C)[C@H](OC(C)=O)[C@@H]1C` [Rifampicin, reference compound], the “Fold Change in MIC” value in [2] is on record as 0.9 fold; in assay [3], 1.3 fold; in assay [4] it was 1.5 fold; in assay [5] it was 1.6 fold; in assay [6] it was 0.8 fold; in assay [7] it was 1.2 fold. The “Fold Change in MIC” value in [8] was found to be 1.2 fold; in [9], 1 fold.

As to `Cc1cc(C(=O)NCc2ccncc2)nc(N2CCC(C(=O)N3CCN(C(=O)c4cnc5c(C)cccc5c4)CC3)CC2)n1` [X21429], the “Fold Change in MIC” value in assay [2] is 1.6 fold; in [3], 8.8 fold; in [4], greater than 57 fold; in assay [5], 18 fold; in [6] it was 17 fold; in [7] it was greater than 57 fold. In addition, the “Fold Change in MIC” value in [8] came to 2.3 fold; in assay [9] it was 3.8 fold.

These data come from publication PMC11091879, “Inhibitors of the Thioesterase Activity of Mycobacterium tuberculosis Pks13 Discovered Using DNA-Encoded Chemical Library Screening” (ACS Infectious Diseases, 2024).
